Test results as given in PMC10339131, “Characterization of two bacterial multi-flavinylated proteins harboring multiple covalent flavin cofactors” (BBA Advances, 2023).

Experiments:
SaFMN3 = biological target: T1, SaFMN3 (Streptomyces azureus, UniProt A0A0K8PVQ4); experiment: ESI-MS of intact protein; TCA precipitation; UV-visible spectrum; type: binding; conditions: covalent; three FMN sites, threonyl phosphoester; attached by co-expressed ApbE
T1 construct: gene SAZU_6878; N-terminal residues 1-48 (signal/membrane anchor) removed; His6-SUMO fusion, cleaved; E. coli BL21-AI with ApbE and CaFADS; mainly monomer; three FMN domains
T1 sequence (A0A0K8PVQ4 49-352): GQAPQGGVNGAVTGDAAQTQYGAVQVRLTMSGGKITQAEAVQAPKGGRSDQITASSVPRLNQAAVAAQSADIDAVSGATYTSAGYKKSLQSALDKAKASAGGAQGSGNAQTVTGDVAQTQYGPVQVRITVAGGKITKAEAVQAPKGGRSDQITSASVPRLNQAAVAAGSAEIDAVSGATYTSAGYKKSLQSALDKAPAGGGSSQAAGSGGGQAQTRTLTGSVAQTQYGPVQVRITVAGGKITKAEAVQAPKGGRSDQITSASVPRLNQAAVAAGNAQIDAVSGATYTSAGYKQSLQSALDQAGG

CbFMN4-D1 = biological target: T2, CbFMN4-D1 (Clostridiaceae bacterium, UniProt Z9KOB2RJF1); experiment: X-ray crystal structure, […] A; type: binding; conditions: covalent; bound via Thr67 (domain numbering); attached by co-expressed ApbE
T2 construct: expressed in E. coli BL21-AI with ApbE and CaFADS; SUMO cleaved; two molecules per asymmetric unit from crystal packing
T2 sequence (Z9KOB2RJF1 1-85): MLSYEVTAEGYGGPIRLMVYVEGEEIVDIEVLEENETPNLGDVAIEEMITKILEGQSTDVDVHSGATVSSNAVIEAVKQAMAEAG

SMILES: Cc1cc2nc3c(=O)[nH]c(=O)nc-3n(C[C@H](O)[C@H](O)[C@H](O)COP(=O)(O)O)c2cc1C [FMN]
- ESI-MS of intact protein; TCA precipitation; UV-visible spectrum (SaFMN3): exactly corresponds to the predicted mass of fully flavinylated SaFMN3
- X-ray crystal structure, 2.60 A (CbFMN4-D1): Both CbFMN4-D1 molecules have a covalently bound FMN via Thr67.
